In the OPERA property sets (Mansouri et al. 2018):

First: CCOc1ccccc1N1CCN(CC2CN=C(N)O2)CC1 (stereo not given)
Second: COc1ccccc1N1CCN(CC2CN=C(N)O2)CC1 (stereo not given)
The logP of the first is higher: 1.21 for the first, 0.76 for the second.

Going from `NC1=NCC(CN2CCN(c3ccc(F)cc3)CC2)O1` (stereo not given) to `Cc1ccc(N2CCN(CC3CN=C(N)O3)CC2)cc1` (stereo not given), the logP rises from 1 to 1.23.

Going from `NC1=NCC(CN2CCN(c3ccccc3)CC2)O1` (stereo not given) to `NC1=NCC(CN2CCN(c3cccc(Cl)c3)CC2)O1` (stereo not given), the logP rises from 0.85 to 1.83.

`COc1ccc(N2CCN(CC3CN=C(N)O3)CC2)cc1` (stereo not given) and `COc1cccc(N2CCN(CC3CN=C(N)O3)CC2)c1` (stereo not given) are within 0.2 log units of each other in logP: 0.68 for the first, 0.87 for the second.

`NC1=NCC(CN2CCN(c3cccc(C(F)(F)F)c3)CC2)O1` (stereo not given) and `NC1=NCC(CN2CCN(c3ccc(Cl)c(Cl)c3)CC2)O1` (stereo not given) are within 0.2 log units of each other in logP: 2.21 for the first, 2.4 for the second.

First: NC1=NCC(CN2CCN(c3ncccn3)CC2)O1 (stereo not given)
Second: NC1=NCC(CN2CCN(c3ccccn3)CC2)O1 (stereo not given)
The logP of the first is lower: 0.21 for the first, 0.48 for the second.

`NC1=NCC(CN2CCN(c3ccc(Cl)cc3)CC2)O1` (stereo not given) and `NC1=NCC(CN2CCN(c3ccccc3Cl)CC2)O1` (stereo not given) are within 0.2 log units of each other in logP: 1.71 for the first, 1.87 for the second.

For `Cc1cccc(N2CCN(CC3CN=C(N)O3)CC2)c1C` (stereo not given), the logP was 2.19.
